The test concerns Plasmopara viticola. The test is described as follows: 72 h preventive treatment of vine plants against vine downy mildew, Abbott efficacy, Tammes and Colby analysis. It is filed as in vivo.
Setting [1] is: Compound Ia share of the mixture, or Compound Ia alone.
Where [2] appears, read: tolylfluanid share of the mixture, or tolylfluanid alone.

This note sets out measurements from patent publication US20070072829A1, “Fungicidal composition comprising a pyridylmethylbenzamide derivative and a sulfamide derivative” (priority 2003, published 2007).

`O=C(NCc1ncc(C(F)(F)F)cc1Cl)c1c(Cl)cccc1Cl` [Compound Ia, 2,6-dichloro-N-{[3-chloro-5-(trifluoromethyl)-2-pyridinyl]methyl}benzamide]: under setting [1], the “ED70: Practical doses for 70% efficacy, dose of Compound Ia” value came out at 27 µg/mL and the “ED90: Practical doses for 90% efficacy, dose of Compound Ia” value stood at 65 µg/mL.

As for `Cc1ccc(N(SC(F)(Cl)Cl)S(=O)(=O)N(C)C)cc1` [Tolylfluanid, N-dichlorofluoromethylthio-N′,N′-dimethyl-N-p-tolylsulfamide], under setting [2], the “ED70: Practical doses for 70% efficacy, dose of tolylfluanid” value came out at 231.4 µg/mL and the “ED90: Practical doses for 90% efficacy, dose of tolylfluanid” value stood at 533.6 µg/mL.
